We go through nine compounds from patent US12503475B2 (Centessa Pharmaceuticals (UK) Limited, priority 2020, dated 2025).

For this assay, the target named is T1, human orexin type 2 receptor (hOX2R) (Homo sapiens, UniProt O43614).
T1 construct: expressed in transfected cells
T1 sequence (O43614 1-444): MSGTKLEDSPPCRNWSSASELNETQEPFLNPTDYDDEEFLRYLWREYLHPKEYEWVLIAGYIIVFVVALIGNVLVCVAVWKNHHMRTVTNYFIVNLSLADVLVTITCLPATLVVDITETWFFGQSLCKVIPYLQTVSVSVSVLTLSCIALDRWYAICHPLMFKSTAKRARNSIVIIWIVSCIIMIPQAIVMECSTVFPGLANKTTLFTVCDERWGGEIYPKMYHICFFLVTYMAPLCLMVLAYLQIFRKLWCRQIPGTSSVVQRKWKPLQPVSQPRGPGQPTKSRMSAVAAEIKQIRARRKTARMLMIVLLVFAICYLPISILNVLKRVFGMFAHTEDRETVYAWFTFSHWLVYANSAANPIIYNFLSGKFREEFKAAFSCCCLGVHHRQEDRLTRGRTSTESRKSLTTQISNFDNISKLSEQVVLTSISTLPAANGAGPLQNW
Briefly: Measurement of orexin type 2 receptor agonist activity (FLIPR calcium fluorescence). Format: cell-based. The settings on record: CHO cells expressing hOX2R, FLIPR calcium fluorescence; for EC50: read-out: hOx2 pEC50 (converted); for Emax: CHO, read-out: hOx2 Emax (%). The method in brief: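 Agonism was read as fluorescence in cells stably expressing human OX2R. E. is the response at 10 μM relative to orexin A as full agonist (100%).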

On to `COC[C@@H](C)N(C)C(=O)N1CC2(CC2)[C@H](NS(C)(=O)=O)[C@@H]1Cc1cccc(-c2ccccc2)c1F` [Compound 317, (6S,7S)-6-((2-fluoro-[1,1′-biphenyl]-3-yl)methyl)-N-((R)-1-methoxypropan-2-yl)-N-methyl-7-(methylsulfonamido)-5-azaspiro[2.4]heptane-5-carboxamide], for which the EC50 was 1 to 10 nM and the Emax – broadly, the maximal effect, on the per cent scale that the assay sets – was 90 to 100%.
`C[C@@H](CC#N)NC(=O)N1CC2(CC2)[C@H](NS(C)(=O)=O)[C@@H]1Cc1cccc(-c2ccccc2)c1F` [Compound 318, (6S,7S)-N-((S)-1-cyanopropan-2-yl)-6-((2-fluoro-[1,1′-biphenyl]-3-yl)methyl)-7-(methylsulfonamido)-5-azaspiro[2.4]heptane-5-carboxamide]: the EC50 was 1 to 10 nM and the Emax was in the range of 90 to 100%.
On the same counts, the results for `CS(=O)(=O)N[C@@H]1[C@H](Cc2cccc(-c3ccccc3)c2F)N(C(=O)NC23CC(F)(C2)C3)CC12CC2` [Compound 319, (6S,7S)-6-((2-fluoro-[1,1′-biphenyl]-3-yl)methyl)-N-(3-fluorobicyclo[1.1.1]pentan-1-yl)-7-(methylsulfonamido)-5-azaspiro[2.4]heptane-5-carboxamide] are 10 to 100 nM and 90 to 100%.
The matching figures for `C[C@]1(NC(=O)N2CC3(CC3)[C@H](NS(C)(=O)=O)[C@@H]2Cc2cccc(-c3ccccc3)c2F)CCOC1` [Compound 320, (6S,7S)-6-((2-fluoro-[1,1′-biphenyl]-3-yl)methyl)-7-(methylsulfonamido)-N-((S)-3-methyltetrahydrofuran-3-yl)-5-azaspiro[2.4]heptane-5-carboxamide]: 10 to 100 nM and 90 to 100%.
For the compound `CN(C(=O)N1CC2(CC2)[C@H](NS(C)(=O)=O)[C@@H]1Cc1cccc(-c2ccccc2)c1F)[C@H]1CCOC1` [Compound 321, (6S,7S)-6-((2-fluoro-[1,1′-biphenyl]-3-yl)methyl)-N-methyl-7-(methylsulfonamido)-N-((S)-tetrahydrofuran-3-yl)-5-azaspiro[2.4]heptane-5-carboxamide], the EC50 was 10 to 100 nM and the Emax lay within 90 to 100%.
The matching figures for `CC1(CNC(=O)N2CC3(CC3)[C@H](NS(C)(=O)=O)[C@@H]2Cc2cccc(-c3ccccc3)c2F)COC1` [Compound 322, (6S,7S)-6-((2-fluoro-[1,1′-biphenyl]-3-yl)methyl)-N-((3-methyloxetan-3-yl)methyl)-7-(methylsulfonamido)-5-azaspiro[2.4]heptane-5-carboxamide]: 0.0794 to 1 nM and 90 to 100%.
The matching figures for `C[C@H](O)CN(C)C(=O)N1CC2(CC2)[C@H](NS(C)(=O)=O)[C@@H]1Cc1cccc(-c2ccccc2)c1F` [Compound 323, (6S,7S)-6-((2-fluoro-[1,1′-biphenyl]-3-yl)methyl)-N-((S)-2-hydroxypropyl)-N-methyl-7-(methylsulfonamido)-5-azaspiro[2.4]heptane-5-carboxamide]: 1 to 10 nM and 90 to 100%.
`CO[C@H](C)CNC(=O)N1CC2(CC2)[C@H](NS(C)(=O)=O)[C@@H]1Cc1cccc(-c2ccccc2)c1F` [Compound 324, (6S,7S)-6-((2-fluoro-[1,1′-biphenyl]-3-yl)methyl)-N-((R)-2-methoxypropyl)-7-(methylsulfonamido)-5-azaspiro[2.4]heptane-5-carboxamide]: the EC50 is 10 to 100 nM and the Emax was in the range of 90 to 100%.
On to `COC[C@@H](C)NC(=O)N1CC2(CC2)[C@H](NS(C)(=O)=O)[C@@H]1Cc1cccc(-c2ccccc2)c1F` [Compound 325, (6S,7S)-6-((2-fluoro-[1,1′-biphenyl]-3-yl)methyl)-N-((R)-1-methoxypropan-2-yl)-7-(methylsulfonamido)-5-azaspiro[2.4]heptane-5-carboxamide], for which the EC50 is 1 to 10 nM and the Emax fell in the range of 90 to 100%.
